pIC50: −log10 of the molar value. Several values for one entry are separate records, joined by “and”; a condition that tells them apart may be missing. Equal values may be shown once.
Tested on: KRAS patient-derived spheroids with HUVEC/MSC, viability
Assay: Anticancer human tumor 519858-162-T-J1-PDC patient-derived colon adenocarcinoma cell line growth inhibition [KRAS2]
Details: for viability, T/C: stronger effect = lower value
How it was run: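 KRAS-mutant tumor cells were grown as spheroids with HUVEC endothelial cells and human MSCs as stroma. Targeted agents were tested alone and with KRAS pathway inhibitors. Doses started at or near clinical Cmax, or 10 microM, descending half-log.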

[1] = curve of first compound, second compound 0.1 µM
[2] = curve of first compound, second compound 0.316 µM
[3] = curve of first compound, second compound 1 µM
[4] = curve of first compound, second compound 3.16 µM
[5] = curve of first compound, second compound 10 µM
[6] = second compound 0.1 µM, first compound 0.0316 µM
[7] = second compound 0.1 µM, first compound 0.1 µM
[8] = second compound 0.316 µM, first compound 0.0316 µM
[9] = second compound 0.316 µM, first compound 0.1 µM
[10] = second compound 1 µM, first compound 0.0316 µM
[11] = second compound 1 µM, first compound 0.1 µM
[12] = second compound 3.16 µM, first compound 0.0316 µM
[13] = second compound 3.16 µM, first compound 0.1 µM
[14] = second compound 10 µM, first compound 0.0316 µM
[15] = second compound 10 µM, first compound 0.1 µM
[16] = second compound 0.1 µM, first compound 0.316 µM
[17] = second compound 0.1 µM, first compound 1 µM
[18] = second compound 0.1 µM, first compound 3.16 µM
[19] = second compound 0.1 µM, first compound 10 µM
[20] = second compound 0.316 µM, first compound 0.316 µM
[21] = second compound 0.316 µM, first compound 1 µM
[22] = second compound 0.316 µM, first compound 3.16 µM
[23] = second compound 0.316 µM, first compound 10 µM
[24] = second compound 1 µM, first compound 0.316 µM
[25] = second compound 1 µM, first compound 1 µM
[26] = second compound 1 µM, first compound 3.16 µM
[27] = second compound 1 µM, first compound 10 µM
[28] = second compound 3.16 µM, first compound 0.316 µM
[29] = second compound 3.16 µM, first compound 1 µM
[30] = second compound 3.16 µM, first compound 3.16 µM
[31] = second compound 3.16 µM, first compound 10 µM
[32] = second compound 10 µM, first compound 0.316 µM
[33] = second compound 10 µM, first compound 1 µM
[34] = second compound 10 µM, first compound 3.16 µM
[35] = second compound 10 µM, first compound 10 µM
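Note: compound exposure lasted seven days before readout.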
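Throughout, for viability, T/C: 100% = DMSO vehicle control viability.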

## CC(C)n1nc(-c2ccc3oc(N)nc3c2)c2c(N)ncnc21 + CNCc1ccccc1-c1csc(C(C)Nc2nc(C)nc3cc(OC)c(OC)cc23)c1
[1]
  pIC50: < 7.00
[2]
  pIC50: < 7.00
[3]
  pIC50: < 7.00
[4]
  pIC50: 8.27
[5]
  pIC50: > 9.50
Second compound 0.1 µM, first compound 0.000316 µM
  viability, T/C: 80.2%
Second compound 0.1 µM, first compound 0.001 µM
  viability, T/C: 70.6%
Second compound 0.1 µM, first compound 0.00316 µM
  viability, T/C: 77.7%
Second compound 0.1 µM, first compound 0.01 µM
  viability, T/C: 72.5%
[6]
  viability, T/C: 67%
[7]
  viability, T/C: 53.5%
Second compound 0.316 µM, first compound 0.000316 µM
  viability, T/C: 76.5%
Second compound 0.316 µM, first compound 0.001 µM
  viability, T/C: 68.5%
Second compound 0.316 µM, first compound 0.00316 µM
  viability, T/C: 69.5%
Second compound 0.316 µM, first compound 0.01 µM
  viability, T/C: 83.2%
[8]
  viability, T/C: 66.8%
[9]
  viability, T/C: 62.5%
Second compound 1 µM, first compound 0.000316 µM
  viability, T/C: 91.9%
Second compound 1 µM, first compound 0.001 µM
  viability, T/C: 69.1%
Second compound 1 µM, first compound 0.00316 µM
  viability, T/C: 78.2%
Second compound 1 µM, first compound 0.01 µM
  viability, T/C: 42.7%
[10]
  viability, T/C: 73.1%
[11]
  viability, T/C: 86.3%
Second compound 3.16 µM, first compound 0.000316 µM
  viability, T/C: 68%
Second compound 3.16 µM, first compound 0.001 µM
  viability, T/C: 65%
Second compound 3.16 µM, first compound 0.00316 µM
  viability, T/C: 55.1%
Second compound 3.16 µM, first compound 0.01 µM
  viability, T/C: 39.8%
[12]
  viability, T/C: 49.6%
[13]
  viability, T/C: 43.1%
Second compound 10 µM, first compound 0.000316 µM
  viability, T/C: 0.52%
Second compound 10 µM, first compound 0.001 µM
  viability, T/C: 0.58%
Second compound 10 µM, first compound 0.00316 µM
  viability, T/C: 0.46%
Second compound 10 µM, first compound 0.01 µM
  viability, T/C: 0.32%
[14]
  viability, T/C: 0.36%
[15]
  viability, T/C: 0.73%

## CCNC(=O)CC1N=C(c2ccc(Cl)cc2)c2cc(OC)ccc2-n2c(C)nnc21 (configuration not stated) + C=CC(=O)N1CCN(c2nc(=O)n(-c3c(C)ccnc3C(C)C)c3nc(-c4c(O)cccc4F)c(F)cc23)C(C)C1
[1]
  pIC50: 5.58
[2]
  pIC50: 5.62
[3]
  pIC50: 5.59
[4]
  pIC50: 5.66
[5]
  pIC50: 5.57
[6]
  viability, T/C: 120%
[7]
  viability, T/C: 97.1%
[16]
  viability, T/C: 74.8%
[17]
  viability, T/C: 70.3%
[18]
  viability, T/C: 42.1%
[19]
  viability, T/C: 37.1%
[8]
  viability, T/C: 102%
[9]
  viability, T/C: 95.2%
[20]
  viability, T/C: 79.8%
[21]
  viability, T/C: 54.7%
[22]
  viability, T/C: 53%
[23]
  viability, T/C: 29.7%
[10]
  viability, T/C: 76%
[11]
  viability, T/C: 74.6%
[24]
  viability, T/C: 70.4%
[25]
  viability, T/C: 79.6%
[26]
  viability, T/C: 44.2%
[27]
  viability, T/C: 28.3%
[12]
  viability, T/C: 93.9%
[13]
  viability, T/C: 86.3%
[28]
  viability, T/C: 101%
[29]
  viability, T/C: 78.2%
[30]
  viability, T/C: 37.6%
[31]
  viability, T/C: 29.4%
[14]
  viability, T/C: 93.9%
[15]
  viability, T/C: 78.5%
[32]
  viability, T/C: 97.6%
[33]
  viability, T/C: 84.7%
[34]
  viability, T/C: 44.1%
[35]
  viability, T/C: 25.4%

## COC(=O)c1ccc2c(C(=Nc3ccc(N(C)C(=O)CN4CCN(C)CC4)cc3)c3ccccc3)c(O)[nH]c2c1 + CC1OCC2(CCN(c3cnc(Sc4ccnc(N)c4Cl)c(N)n3)CC2)C1N
[1]
  pIC50: < 5.00
[2]
  pIC50: < 5.00
[3]
  pIC50: < 5.00
[4]
  pIC50: < 5.00
[5]
  pIC50: < 5.00
[6]
  viability, T/C: 66%
[7]
  viability, T/C: 80%
[16]
  viability, T/C: 63.4%
[17]
  viability, T/C: 66%
[18]
  viability, T/C: 99.7%
[19]
  viability, T/C: 74.6%
[8]
  viability, T/C: 72.7%
[9]
  viability, T/C: 67.5%
[20]
  viability, T/C: 86.5%
[21]
  viability, T/C: 64.1%
[22]
  viability, T/C: 67%
[23]
  viability, T/C: 98.8%
[10]
  viability, T/C: 75.4%
[11]
  viability, T/C: 75%
[24]
  viability, T/C: 56.9%
[25]
  viability, T/C: 70.7%
[26]
  viability, T/C: 64.6%
[27]
  viability, T/C: 84%
[12]
  viability, T/C: 47.9%
[13]
  viability, T/C: 60.9%
[28]
  viability, T/C: 72.7%
[29]
  viability, T/C: 52.6%
[30]
  viability, T/C: 67.4%
[31]
  viability, T/C: 83.2%
[14]
  viability, T/C: 49.9%
[15]
  viability, T/C: 58%
[32]
  viability, T/C: 64.7%
[33]
  viability, T/C: 69.2%
[34]
  viability, T/C: 75.3%
[35]
  viability, T/C: 88.3%

## COc1cc(Nc2ncc3c(n2)-c2ccc(Cl)cc2C(c2c(F)cccc2OC)=NC3)ccc1C(=O)O + C=CC(=O)N1CCN(c2nc(=O)n(-c3c(C)ccnc3C(C)C)c3nc(-c4c(O)cccc4F)c(F)cc23)C(C)C1
[1]
  pIC50: < 5.00
[2]
  pIC50: < 5.00
[3]
  pIC50: < 5.00
[4]
  pIC50: < 5.00
[5]
  pIC50: < 5.00
[6]
  viability, T/C: 104%
[7]
  viability, T/C: 62.4%
[16]
  viability, T/C: 89.9%
[17]
  viability, T/C: 102%
[18]
  viability, T/C: 104%
[19]
  viability, T/C: 120%
[8]
  viability, T/C: 80%
[9]
  viability, T/C: 91.2%
[20]
  viability, T/C: 74.1%
[21]
  viability, T/C: 53.3%
[22]
  viability, T/C: 89.9%
[23]
  viability, T/C: 125%
[10]
  viability, T/C: 97.2%
[11]
  viability, T/C: 94.4%
[24]
  viability, T/C: 91.5%
[25]
  viability, T/C: 85.5%
[26]
  viability, T/C: 83%
[27]
  viability, T/C: 125%
[12]
  viability, T/C: 134%
[13]
  viability, T/C: 74.8%
[28]
  viability, T/C: 57.1%
[29]
  viability, T/C: 90.1%
[30]
  viability, T/C: 71.3%
[31]
  viability, T/C: 91.1%
[14]
  viability, T/C: 95.1%
[15]
  viability, T/C: 74.1%
[32]
  viability, T/C: 83%
[33]
  viability, T/C: 71%
[34]
  viability, T/C: 73%
[35]
  viability, T/C: 103%

## COc1cc2nc(C)nc(NC(C)c3cc(N)cc(C(F)(F)F)c3)c2cc1OC1CCOC1 (configuration not stated)
Compound alone, run of 07/19/2021
  pIC50: < 5.00 and 5.05
Compound alone, run of 07/26/2021
  pIC50: 5.01 and < 5.00 and 5.45

Reference: PubChem BioAssay AID1963872 (Molecular Pharmacology Branch, DTP, NCI, 2024)
